In patent US7038077B2, “Prodrugs of excitatory amino acids” (Eli Lilly and Company, priority 2001, dated 2006):

| Compound | melting point |
| --- | --- |
| Cl.N[C@@]1(C(=O)OCc2cc(F)cc(F)c2)CC[C@H]2[C@H](C(=O)O)[C@H]21 [Example 35, (1S,2S,5R,6S)-2-Amino-bicyclo[3.1.0]hexane-2,6-dicarboxylic acid 2-(3′,5′-difluoro)benzyl ester hydrochloride] | 98 to 99 °C |
| Cl.N[C@@]1(C(=O)OCc2ccccc2Br)CC[C@H]2[C@H](C(=O)O)[C@H]21 [Example 34, (1S,2S,5R,6S)-2-Amino-bicyclo[3.1.0]hexane-2,6-dicarboxylic acid 2-(2′-bromo)benzyl ester hydrochloride] | 190 to 191 °C |
| Cl.N[C@@]1(C(=O)OCc2ccccc2C(F)(F)F)CC[C@H]2[C@H](C(=O)O)[C@H]21 | > 175 °C (dec.) |
| Cl.N[C@@]1(C(=O)OCc2cc(Cl)ccc2Cl)CC[C@H]2[C@H](C(=O)O)[C@H]21 [Example 33, (1S,2S,5R,6S)-2-Amino-bicyclo[3.1.0]hexane-2,6-dicarboxylic acid 2-(2′,5′-dichloro)benzyl ester hydrochloride] | 173 to 175 °C |
| Cl.N[C@@]1(C(=O)OCc2ccc(Cl)cc2Cl)CC[C@H]2[C@H](C(=O)O)[C@H]21 [Example 29, (1S,2S,5R,6S)-2-Amino-bicyclo[3.1.0]hexane-2,6-dicarboxylic acid 2-(2′,4′-dichloro)benzyl ester hydrochloride] | 135 to 137 °C |
| Cl.N[C@@]1(C(=O)OCc2ccccc2F)CC[C@H]2[C@H](C(=O)O)[C@H]21 [Example 31, (1S,2S,5R,6S)-2-Amino-bicyclo[3.1.0]hexane-2,6-dicarboxylic acid 2-(2′-fluoro)benzyl ester hydrochloride] | > 220 °C (dec.) |
| N[C@@]1(C(=O)OCc2cccc(F)c2)CC[C@H]2[C@H](C(=O)O)[C@H]21 [Example 54, (1S,2S,5R,6S)-2-Amino-bicyclo[3.1.0]hexane-2,6-dicarboxylic acid 2-(3′-fluoro)benzyl ester] | 225 °C (dec.) |
| COc1ccccc1COC(=O)[C@]1(N)CC[C@H]2[C@H](C(=O)O)[C@H]21 [Example 48, (1S,2S,5R,6S)-2-Amino-bicyclo[3.1.0]hexane-2,6-dicarboxylic acid 2-(2′-methoxy)benzyl ester] | 195 °C (dec.) |
| Cc1ccc(C)c(COC(=O)[C@]2(N)CC[C@H]3[C@H](C(=O)O)[C@H]32)c1.Cl [Example 41, (1S,2S,5R,6S)-2-Amino-bicyclo[3.1.0]hexane-2,6-dicarboxylic acid 2-(2′,5′-dimethyl)benzyl ester hydrochloride] | 70 °C (dec.) |
